For 61 compounds, melting point results are on record in a melting point compilation (Tetko et al.; mined from patent text by program, amines drawn as free bases though some values may be those of a salt).

The compound `COc1cccc(C(=O)N2CCc3cc(S(=O)(=O)N4CCN(c5cccc(Cl)c5)CC4)ccc32)c1` registered a melting point of 155 to 156 °C.
The same measure for `CC(C)c1ccc(C2COc3ccc(Br)cc32)cc1` (stereo unspecified): 90 to 91 °C; for `COC1CN(C)S(=O)(=O)c2sccc21` (stereo unspecified): 61 to 63 °C; for `CCOC(=O)[C@H](Cc1ccc(-c2c(OC)cc(C=O)cc2OC)cc1)NC(=O)c1c(F)cccc1F`: 114 to 116 °C.
Under `COC(CNC(=O)CCl)OC` stands 33 to 36 °C; under `CC(=O)Nc1c(C(=O)c2ccoc2)[nH]c2cc(Cl)ccc12`, 217 to 219 °C; under `CCn1c(N)c(-c2nccn2COCC[Si](C)(C)C)c(=O)c2ccc(-c3ccc(C(C)C(=O)O)cc3)nc21` (stereo unspecified), 248 °C.
Under `CCCCCS(=O)(=O)NC(=O)CCc1cc(C(C)(C)C)nn1Cc1ccc(C(F)(F)F)cc1Cl` stands 136 to 137 °C; under `Cc1cc(N)nc(-c2ccncc2)n1`, 192 to 194 °C.
As to `Cc1ccc(C)n1-c1ccccc1OCC(O)CNC(C)C` (stereo unspecified), the melting point was 73 to 75 °C.
With `NNc1nc(-c2ccccc2)c2cc(Cl)ccc2n1`, the melting point was in the range of 172 to 173 °C.
Under `CCC(C)(C)Nc1cccnc1N(C)C1CCN(C(=O)c2cc3cc([N+](=O)[O-])ccc3[nH]2)CC1` stands 206 to 208 °C; under `COc1ccccc1N1CCN(CCCNC(=O)c2cccc3c(=O)cc(-c4ccccc4)[nH]c23)CC1`, 135 to 140 °C.
`O=C(CCCCCCNC(=O)c1ccc(C(C(=O)Nc2cccc3cccnc23)C(=O)Nc2cccc3cccnc23)cc1)NO` displayed a melting point of 212 to 215 °C.
Compound `CC1CC(=O)C(C(=O)c2ccc(S(C)(=O)=O)cc2[N+](=O)[O-])C(=O)C1(C)C` (stereo unspecified) yielded a melting point of 166 to 167 °C.
`CN1C(=S)N(c2ccc(C#N)c(C(F)(F)F)c2)C(=O)C1(CF)CF` displayed a melting point of 122 to 123 °C.
The same measure for `O=C(O)c1ccc(F)c(Oc2ccccc2)c1`: 226 to 227 °C.
The same measure for `N#Cc1cc(Oc2ccccc2)ccc1O`: 112 to 114 °C.
Compound `CC(C)c1nnnn1-c1cc(C(=O)O)cc(-c2ccc(Cl)cn2)c1` came in with a melting point of 180 to 181 °C.
Take `CCCc1nc2c(N)nc3c(c2n1CCCCC(=O)N1CCOCC1)CCCC3`: the melting point fell in the range of 158 to 160 °C.
`COc1ccc(CNc2n[nH]c3ncnc(Nc4cccc(Cl)c4)c23)cc1O` registered a melting point of 225 to 227 °C.
Under `O=CNCc1ccccc1C(F)(F)C(F)(F)c1ccccc1` stands 61 to 75 °C; under `CC(C)(C)NC(CO)c1cc(Cl)c(N)c(C(F)(F)F)c1` (stereo unspecified), 85 to 90 °C.
The same measure for `COc1c(N2CCC(C(O)CO)CC2)c(F)cc2c(=O)c(C(=O)O)cn(C3CC3)c12` (stereo unspecified): 200 to 204 °C; for `CC(C)(C)C(=O)C(N)=O`: 69 to 70 °C; for `CCCCc1ncc(C=C2C(=O)Nc3ccc(Cl)cc32)n1Cc1ccc(C(=O)OC)cc1`: 238 to 241 °C.
The same measure for `CC(C)c1c(C=C(Br)Br)c(-c2ccc(F)cc2)n2ccccc12`: 118 to 120 °C; for `CCN(C(=S)Oc1ccc(C(C)C)cc1)c1cccc(OC)n1`: 53 to 54 °C; for `CNC1C(C)CN(c2c(F)c(N)c3c(=O)c(C(=O)O)cn(C4CC4)c3c2OC)CC1C` (stereo unspecified): 224 to 226 °C.
`CC(C)(C)c1cc(C(=O)Nc2nc(CC(=O)NCCN3CCN(c4ncccn4)CC3)cs2)cc(C(C)(C)C)c1O` displayed a melting point of 175 to 179 °C.
The same measure for `CCCCCCCCCCCCc1ccccc1C(CC(=O)O)SCCC(=O)O` (stereo unspecified): 55 to 56 °C; for `CCCCCCCCN(SN(C(=O)NC(=O)c1ccccc1[N+](=O)[O-])c1ccc(Oc2ncc(Br)cn2)c(Cl)c1)C(=O)OC`: 51 to 54 °C.
Take `CCOc1cc(C(CC(C)O)N2C(=O)c3cccc(NC(C)=O)c3C2=O)ccc1OC` (stereo unspecified): the melting point lay in the range of 132 to 134 °C.
As for `COc1ccc(-c2cncc(OC3SCC(O)C(O)C3O)c2)cc1Cl` (stereo unspecified), the melting point worked out at 165 °C.
The same measure for `CC(=O)c1cccc(-c2ncc(N=CN(C)C)cn2)c1`: 146 to 148 °C.
Regarding `CC1(C)Oc2ccc(C#N)cc2[C@@H](N2CCSC2=NC#N)[C@@H]1O`, the melting point lay in the range of 272 to 274 °C.
In the case of `O=C(O)c1ccc(C(c2ccc(C(=O)O)c(C(=O)O)c2)(C(F)(F)F)C(F)(F)F)cc1C(=O)O`, the melting point was in the range of 231 to 234 °C.
Under `Oc1ccc(-c2nc(-c3cccs3)c[nH]2)cc1Cl` stands 152 to 153 °C; under `COC1C2=C3C(=CN1OC)OCCC3CCC2` (stereo unspecified), 235 to 238 °C.
The same measure for `COc1ccc2c(C(=O)O)nn(Cc3ccc(Cl)c(Cl)c3)c(=O)c2c1`: 238 to 240 °C; for `Cc1ccc(S(=O)(=O)O[C@@H]2C[C@@H](CCl)N(S(=O)(=O)c3ccc(C)cc3)C2)cc1`: 145 to 146 °C.
The same measure for `CCOCc1nc2c(N)nc3cc(-c4cccnc4)ccc3c2n1CCCCNC(=O)OC(C)(C)C`: 117 to 119 °C.
Take `Cn1nc(N2c3cc(F)ccc3CC2C(=O)N2CCCCCC2)ccc1=O` (stereo unspecified): the melting point lay within 204 to 207 °C.
`Cn1nc(N)nc1NCCCOc1cccc(CN2CCCCC2)c1` yielded a melting point of 94 to 95 °C.
`NS(=O)(=O)CCC(O)COCc1ccccc1` (stereo unspecified): the melting point was in the range of 94 to 98 °C.
As to `CCN(CC)c1ccc2nc3c4ccccc4c(=Nc4ncc(Cl)cc4Cl)cc-3oc2c1`, the melting point lay within 192 to 193 °C.
`O=C(NCCC1CC2CCC1C2)n1cc(F)c(=O)[nH]c1=O` (stereo unspecified) came in with a melting point of 128 to 130 °C.
Under `Nc1nc(N)c2cc(Oc3ccc(Cl)cc3)ccc2n1` stands 226 to 228 °C; under `CCCn1nc(-c2ccc(OC)cc2)cc(C(=O)OC)c1=O`, 105 to 106 °C.
As to `CC(C)(C)OC(=O)NC1CCCC1CO` (stereo unspecified), the melting point fell in the range of 107 to 108 °C.
`Cc1c(C#N)c(C(F)(F)F)nn1-c1c(Cl)cc(C(F)(F)F)cc1Cl` displayed a melting point of 90 to 92 °C.
As to `Cc1nc(-c2ccc3c(c2)c2cc(-c4ccc(Cl)cc4Cl)c(=O)n(C)c2n3C)cs1`, the melting point lay within 253 to 254 °C.
Under `COc1ccc2c(=O)c(OS(C)(=O)=O)cn(C)c2c1` stands 163 °C.
Under `COC(=O)CSc1cccc(CNC(=O)C2Cc3ccccc3N2S(=O)(=O)c2ccc(-c3cccc(C(F)(F)F)c3)cc2)c1` (stereo unspecified) stands 51 °C; under `CCCCc1nn(-c2cc(N)ccc2Cl)c(C(=O)OCC)c1Cc1ccc(-c2ccccc2S(=O)(=O)NC(=O)c2ccccc2Cl)cc1`, > 75 °C.
The same measure for `COc1ccc(C(OCC2(COS(=O)(=O)c3ccc(C)cc3)OC(n3ccc(=O)[nH]c3=O)C(O)C2O)(c2ccccc2)c2ccc(OC)cc2)cc1` (stereo unspecified): 104 to 105 °C.
As to `CC(C)(C(=O)NO)N(CCC(=O)O)S(=O)(=O)c1ccc(Oc2ccc(F)cc2)cc1`, the melting point came out at 162 °C.
The compound `CNC(=S)N1CCc2cc(S(=O)(=O)N3CC(c4ccccc4)NC3=O)ccc21` (stereo unspecified) showed a melting point of 217 to 219 °C.
Under `CCN1C(=O)[C@@H](N)COc2ccccc21` stands 97 °C; under `CC(C)C(=O)N[C@@H](CS)C(=O)NCCSC(=O)C(C)C`, 125 to 127 °C.
The same measure for `CCOC(=O)NC(=S)Nc1cc(Br)ccn1`: 107 to 110 °C.
